What is called EC50 is the concentration that produces a half-maximal response.

T1 sequence (O14842 whole entry): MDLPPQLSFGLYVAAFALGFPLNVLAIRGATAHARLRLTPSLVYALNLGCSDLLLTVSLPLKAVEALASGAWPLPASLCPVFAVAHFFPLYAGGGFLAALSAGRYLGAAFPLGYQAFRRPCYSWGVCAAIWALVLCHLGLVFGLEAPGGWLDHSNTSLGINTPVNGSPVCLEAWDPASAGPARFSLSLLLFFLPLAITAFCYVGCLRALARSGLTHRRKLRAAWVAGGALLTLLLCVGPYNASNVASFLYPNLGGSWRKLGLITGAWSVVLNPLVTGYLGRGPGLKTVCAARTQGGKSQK

The experiment has as its target T1, hGPR40 (Homo sapiens, UniProt O14842).
T1 construct: 3x FLAG; expressed in transfected cells
Description: FDSS-Based Intracellular Calcium Assay. The conditions noted are these: cells expressing GPR40, intracellular Ca2+ response. Format: cell-based. How it is done:
FDSS-Based Intracellular Calcium Assay
Cell lines expressing GPR40 are generated using the pDEST 3× flag gene expression system and are cultured in culture medium comprising the following components: F12 (Gibco #11765), 10% lipid deprived fetal bovine serum, 250 μg/ml zeocin and 500 μg/ml G418. To conduct the fluorescent imaging plate reader (FLIPR)-based calcium flux assay to measure intracellular Ca^2+ response, cells expressing GPR40 are plated on 384 well plates (BD Biocoat #356697) at a density of 20,000 cells/20 μL medium per well in phenol red and serum-free DMEM (Gibco #21063-029) and incubated overnight. […] Compounds are dissolved in DMSO and diluted to desired concentrations with assay buffer and added to the cells as 3x solution (20 μL per well). Run fluorescence/luminescence reader FDSS (Hamamatsu) to read intracellular Ca^2+ response.
(In general: Calcium flux is commonly read through the fluorescence of an indicator in the cells.)
As for `Cc1cc(Cc2ccc(N3N=C(C(F)(F)F)CC3CC(=O)O)cc2)ccc1Br` (racemic) [Example 18, 2-(1-(4-(4-bromo-3-methylbenzyl)phenyl)-3-(trifluoromethyl)-4,5-dihydro-1H-pyrazol-5-yl)acetic acid], the EC50 worked out at 455 nM.

In the case of `COc1ccc(F)c(-c2ccc(Cc3ccc(N4N=C(C#N)C(C)C4CC(=O)O)cc3)c(C)c2)c1` (single isomer, unassigned) [Example 52, Isomer 2, 2-(3-cyano-1-(4-((2′-fluoro-5′-methoxy-3-methylbiphenyl-4-yl)methyl)phenyl)-4-methyl-4,5-dihydro-1H-pyrazol-5-yl)acetic acid], the EC50 was 300 nM.

In the case of `COc1ccc(F)c(-c2ccc(Cc3ccc(N4N=C(C#N)CC4CC(=O)O)cc3)c(C)c2)c1` (single isomer, unassigned) [Example 34, Isomer 1, 2-(3-cyano-1-(4-((2′-fluoro-5′-methoxy-3-methylbiphenyl-4-yl)methyl)phenyl)-4,5-dihydro-1H-pyrazol-5-yl)acetic acid], the EC50 came to 150 nM.

Take `C[C@@H]1C(C(F)(F)F)=NN(c2ccc(CCCc3cccc(F)c3)cc2)[C@H]1CC(=O)O` [Example 72, 2-((4S,5S)-1-(4-(3-(3-fluorophenyl)propyl)phenyl)-4-methyl-3-(trifluoromethyl)-4,5-dihydro-1H-pyrazol-5-yl)acetic acid]: the EC50 worked out at 7020 nM.

In the case of `COc1ccc(F)c(-c2ccc(Cc3ccc(N4N=C(C#N)C(C)C4CC(=O)O)cc3)c(C)c2)c1` (single isomer, unassigned) [Example 52, Isomer 1, 2-(3-cyano-1-(4-((2′-fluoro-5′-methoxy-3-methylbiphenyl-4-yl)methyl)phenyl)-4-methyl-4,5-dihydro-1H-pyrazol-5-yl)acetic acid], the EC50 is 1050 nM.

As to `Cc1cc(-c2cc(O)ccc2F)ccc1Cc1ccc(N2N=C(C(F)(F)F)[C@@H](C)[C@@H]2CC(=O)O)cc1` [Example 56, 2-((4S,5S)-1-(4-((2′-fluoro-5′-hydroxy-3-methyl-[1,1′-biphenyl]-4-yl)methyl)phenyl)-4-methyl-3-(trifluoromethyl)-4,5-dihydro-1H-pyrazol-5-yl)acetic acid], the EC50 came out at 150 nM.

As to `Cc1cc(-c2cnccn2)ccc1Cc1ccc(N2N=C(C(F)(F)F)[C@@H](C)[C@@H]2CC(=O)O)cc1` [Example 76, 2-((4S,5 S)-4-methyl-1-(4-(2-methyl-4-(pyrazin-2-yl)benzyl)phenyl)-3-(trifluoromethyl)-4,5-dihydro-1H-pyrazol-5-yl)acetic acid], the EC50 was determined as 1620 nM.

As for `COc1cccc(-c2ccc(Cc3ccc(N4N=C(C(F)(F)F)CC4CC(=O)O)cc3)c(C)c2)c1` (single isomer, unassigned) [Example 26, Isomer 1, 2-(1-(4-((3′-methoxy-3-methylbiphenyl-4-yl)methyl)phenyl)-3-(trifluoromethyl)-4,5-dihydro-1H-pyrazol-5-yl)acetic acid], the EC50 was 330 nM.

As for `COc1ccc(F)c(-c2ccc(Cc3ccc(N4N=C(C(F)(F)F)C(C)C4CC(=O)O)cc3)c(Cl)c2)c1` (single isomer, unassigned) [Example 60, Isomer 2, 22-(1-(4-((3-chloro-2′-fluoro-5′-methoxy-[1,1′-biphenyl]-4-yl)methyl)phenyl)-4-methyl-3-(trifluoromethyl)-4,5-dihydro-1H-pyrazol-5-yl)acetic acid], the EC50 turned out to be 40 nM.

As for `C[C@@H]1C(C(F)(F)F)=NN(c2ccc(CCCc3ccccc3)cc2)[C@H]1CC(=O)O` [Example 71, 2-((4S,5S)-4-methyl-1-(4-(3-phenylpropyl)phenyl)-3-(trifluoromethyl)-4,5-dihydro-1H-pyrazol-5-yl)acetic acid], the EC50 is 5760 nM.

Consider `COc1ccc(F)c(-c2ccc(Cc3ccc(N4N=C(c5cc(C)on5)[C@@H](C)[C@@H]4CC(=O)O)cc3)c(C)c2)c1` (single isomer, unassigned) [Example 69, isomer 1], for which the EC50 was found to be 57 nM.

Turning to `COc1cccc(-c2ccc(Cc3ccc(N4N=C(C(F)(F)F)[C@@H](C)[C@@H]4CC(=O)O)cc3)c(C)c2)c1` [Example 73], the EC50 was determined as 37 nM.

Consider `COc1ccc(F)c(-c2ccc(Cc3ccc(N4N=C(C(F)(F)F)C(c5ccccc5)C4CC(=O)O)cc3)c(C)c2)c1` (single isomer, unassigned) [Example 47, Isomer 1, 2-(1-(4-((2′-fluoro-5′-methoxy-3-methylbiphenyl-4-yl)methyl)phenyl)-4-phenyl-3-(trifluoromethyl)-4,5-dihydro-1H-pyrazol-5-yl)acetic acid], for which the EC50 came out at 890 nM.

For `CC(C)c1ccccc1Oc1ccc(N2N=C(C#N)CC2CC(=O)O)cc1` (racemic) [Example 29, 2-(3-cyano-1-(4-(2-isopropylphenoxy)phenyl)-4,5-dihydro-1H-pyrazol-5-yl)acetic acid], the EC50 was 430 nM.

As for `COc1ccc(F)c(-c2ccc(Cc3ccc(N4N=C(c5ccc(Cl)cc5)[C@@H](C)[C@@H]4CC(=O)O)cc3)c(C)c2)c1` (single isomer, unassigned) [Example 66, isomer 2], the half-maximal effective concentration (EC50) turned out to be 510 nM.

Regarding `COc1ccc(F)c(-c2ccc(Cc3ccc(N4N=C(c5ccccn5)C(C)C4CC(=O)O)cc3)c(C)c2)c1` (single isomer, unassigned) [Example 62, isomer 1, 2-(1-(4-((2′-fluoro-5′-methoxy-3-methylbiphenyl-4-yl)methyl)phenyl)-4-methyl-3-(pyridin-2-yl)-4,5-dihydro-1H-pyrazol-5-yl)acetic acid], the EC50 stood at 1600 nM.

Turning to `COc1ccc(F)c(-c2ccc(Cc3ccc(N4N=C(C(F)(F)F)CC4CC(=O)O)cc3)c(F)c2)c1` (single isomer, unassigned) [Example 19, Isomer 2, 2-(1-(4-((2′,3-difluoro-5′-methoxybiphenyl-4-yl)methyl)phenyl)-3-(trifluoromethyl)-4,5-dihydro-1H-pyrazol-5-yl)acetic acid], the EC50 turned out to be 90 nM.

Turning to `COc1ccc(F)c(-c2ccc(Cc3ccc(N4N=C(C(F)(F)F)C(C)(C)C4CC(=O)O)cc3)c(C)c2)c1` (single isomer, unassigned) [Example 50, Isomer 1, 2-(1-(4-((2′-fluoro-5′-methoxy-3-methylbiphenyl-4-yl)methyl)phenyl)-4,4-dimethyl-3-(trifluoromethyl)-4,5-dihydro-1H-pyrazol-5-yl)acetic acid], the half-maximal effective concentration (EC50) was 220 nM.

On to `COc1ccc(Cl)c(-c2ccc(Cc3ccc(N4N=C(C(F)(F)F)CC4CC(=O)O)cc3)cc2C)c1` (racemic) [Example 23, 2-(1-(4-((2′-chloro-5′-methoxy-2-methylbiphenyl-4-yl)methyl)phenyl)-3-(trifluoromethyl)-4,5-dihydro-1H-pyrazol-5-yl)acetic acid], for which the EC50 amounted to 350 nM.

Consider `Cc1cc(Br)c(F)cc1Oc1ccc(N2N=C(C(F)(F)F)CC2CC(=O)O)cc1` (racemic) [Example 10, 2-(1-(4-(4-bromo-5-fluoro-2-methylphenoxy)phenyl)-3-(trifluoromethyl)-4,5-dihydro-1H-pyrazol-5-yl)acetic acid], for which the EC50 stood at 230 nM.

For the compound `N#CC1=NN(c2ccc(Oc3ccccc3Br)cc2)C(CC(=O)O)C1` (racemic) [Example 30, 2-(1-(4-(2-bromophenoxy)phenyl)-3-cyano-4,5-dihydro-1H-pyrazol-5-yl)acetic acid], the EC50 turned out to be 180 nM.
